Data on 15 compounds can be found in patent publication US20210047290A1, “SPIRO COMPOUND AS INDOLEAMINE-2,3-DIOXYGENASE INHIBITOR” (SHANGHAI INSTITUTE OF ORGANIC CHEMISTRY, CHINESE ACADEMY OF …, priority 2018, published 2021).

The target of one assay is T1, IDO in Hela cells (Homo sapiens, UniProt P14902).
T1 construct: endogenous in cells; host or cells: HeLa cells stimulated with human interferon γ
Nature of the assay: Test of cellular activity (kynurenine formation in interferon γ stimulated Hela cells). The note with it: head prints IPS cells, method: Hela cells, 48 h incubation, read at 480 nm. It is filed as cell-based. The method, then: (3) Test Method of Cellular Activity
Hela cells (80 μL) was inoculated on a 96-well plate (5×10^3 for each well) to grow overnight. After the compound was diluted the next day, 1 μL of diluent and 100 μL of culture medium which contains human interferon γ (final concentration: 50 ng/m) were added into the 96-well plate to make the final volume reach […]. After incubating for 48 h, 80 μL of supernate was transferred from each well to a new […]. 10 μL 6.1N trichloroacetic acid was added into each well for mixing and incubation at 50° C. for 30 min, and […] N formyl-kynurenin into kynurenine. The reaction mixture was centrifuged at 2,500 rpm for 10 min, 70 μL of supernatant of each well was transferred to a new 96-well plate and mixed with 100 μL of 2% (w/v) dimethylaminobenzaldehyde acetic acid solution. After placing for 5-10 min, measurement was carried out at 480 nm with the SPECTRAmax i13 reader.

The target in the next assay is T2, IDO enzyme (Homo sapiens, UniProt P14902).
T2 construct: made in house; host or cells: E. coli BL21 (pET28a-IDO plasmid)
Nature of the assay: IDO enzyme inhibitory activity test. It is filed as biochemical. The conditions noted are these: recombinant IDO, D-Trp substrate, reading at 321 nm for 40 min. The method, then: (1) Induced Expression and Purification Method of IDO Protein
Firstly, DO gene was amplified with PCR, and the amplified PCR product was recycled. Digestion (2 h under 37° C.), gel running and recycling were carried out on the pET28a plasmid (purchased from Shanghai Baomanbio Co., Ltd.) and IDO gel with two restriction enzymes (EcoR I and Xho I). T4 ligase was connected with the product overnight, added into DH5α competence, placed on the ice for 30 min and subjected to thermal shock at 42° C. for 90 s.
BL21 which contained pET28a-IDO plasmid was shaken vigorously at 37° C. till OD600 was 0.6-0.8, added into hemin (final concentration: 40 μM) and 0.5 mM IPTG (isopropyl-3-D-IPTG) and induced under 16° C. for 20 h; after induction, thallus were collected centrifugally at 4° C. and 6,000 rpm, washed with 50 mM PBS (pH 7.5) and collected again centrifugally.
The collected thallus were suspended again with buffer solution (50 mM PBS pH 7.5). An appropriate amount of 100×PMSF was added. The thallus were disrupted with cell disruption instrument (1,400 bar) at 4° C. for three times. The split bacteria were centrifuged at 18,000×g for 45 min. The sediment was removed but supernatant was retained and filtered with a 0.45 μm film at 4° C.; the nickel column was balanced with lysis buffer (50 mM PBS pH7.5) by 3 column volumes.
The supernatant was loaded on the nickel column and washed with wash solution (50 mM PBS pH7.5, 50 mM imidazole) by 4 column volume. Finally, protein was eluted with eluant (50 mM PBS pH7.5, 250 mM imidazole); dialyzed for 6 h with dialysis solution (50 mM PBS pH7.5), concentrated, sub-packaged, quickly frozen with liquid nitrogen and stored at −80° C. for backup.
(2) Test Method for IDO Enzyme Inhibitory Activity
Firstly, the compound was diluted by triple gradient. 1 μL of each concentration was added into a 96-well plate; 50 μL of IDO Enzyme solution PBS (pH 7.5; final concentration: 50 mM) was added: 25 μL of substrate 1 (methylene blue, final concentration: […]; catalase, final concentration: 0.2 μg/L; PBS (pH 7.5; final concentration: 50 mM) mixture and 25 μL of substrate 2 (D-Trp, final concentration: 1.5 mM; sodium ascorbate, final concentration: 20 mM; PBS (pH 7.5), final concentration 50 mM) mixture were added for starting the reaction. Finally, OOD321 nm reading was carried out for 40 min.

T1 sequence (P14902 whole entry): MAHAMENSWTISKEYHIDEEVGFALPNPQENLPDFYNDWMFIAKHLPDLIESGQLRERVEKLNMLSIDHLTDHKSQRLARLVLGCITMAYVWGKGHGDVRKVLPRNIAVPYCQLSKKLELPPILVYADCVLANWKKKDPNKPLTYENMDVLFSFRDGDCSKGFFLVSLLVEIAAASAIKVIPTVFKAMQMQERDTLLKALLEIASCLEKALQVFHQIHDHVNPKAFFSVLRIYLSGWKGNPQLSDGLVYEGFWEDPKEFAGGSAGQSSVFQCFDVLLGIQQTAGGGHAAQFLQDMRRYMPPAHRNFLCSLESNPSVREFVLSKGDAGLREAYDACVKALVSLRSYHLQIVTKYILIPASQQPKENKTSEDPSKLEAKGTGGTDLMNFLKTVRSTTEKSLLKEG
T2 sequence (P14902 whole entry): as above

What is called IC50 is the concentration needed to halve the response being measured. Take `O=C(Nc1ccc(Cl)cc1)C1CC2(C1)CC(c1ccnc3ccccc13)C2` (racemic) [Example 1, (±)-N-(4-chlorophenyl)-6-(quinolin-4-yl)spiro[3.3]heptane-2-carboxamide]: the half-maximal inhibitory concentration (IC50) was greater than 50 nM at IDO in Hela cells and 1100 nM at IDO enzyme.
Turning to `O=C(Nc1ccc(Cl)cc1)C1CC12CCC(c1ccnc3ccccc13)CC2` (racemic) [Example 2A, (±)-(cis/trans)-N-(4-chlorophenyl)-6-(quinolin-4-yl)spiro[2.5]octane-1-carboxamide], the IC50 on IDO in Hela cells was greater than 50 nM; on IDO enzyme, 1300 nM.
Taken in the same sequence, the figures for `O=C(Nc1ccc(Cl)cc1)C1CC2(C1)CC(c1ccnc3ccc(F)cc13)C2` (racemic) [Example 3, (±) N-(4-chlorophenyl)-6-(6-fluoroquinolin-4-yl)spiro[3.3]heptane-2-carboxamide] were greater than 3 nM and 630 nM.
For `O=C(Nc1ccc(Cl)cc1)C1CC12CCC(c1ccnc3ccc(F)cc13)CC2` (racemic) [Example 4, (±)-(cis/trans)-N-(4-chlorophenyl)-6-(6-fluoroquinolin-4-yl)spiro[2.5]octane-1-carboxamide] the same measures were 22 nM and 160 nM.
Taken in the same sequence, the figures for `O=C(Nc1ccc(F)cc1)C1CC12CCC(c1ccnc3ccc(F)cc13)CC2` (racemic) [Example 5, (±)-(cis/trans)-N-(4-fluorophenyl)-6-(6-fluoroquinolin-4-yl)spiro[2.5]octane-1-carboxamide] were greater than 3 nM and 330 nM.
Consider `O=C(Nc1ccc(C(F)(F)F)cc1)C1CC12CCC(c1ccnc3ccc(F)cc13)CC2` (racemic) [Example 6, (±)-(cis/trans)-6-(6-fluoroquinolin-4-yl)-N-(4-trifluoromethyl)phenyl)spiro[2.5]octane-1-carboxamide], for which the 50% inhibitory concentration (IC50) at IDO in Hela cells is greater than 4 nM; at IDO enzyme, 470 nM.
Taken in the same sequence, the figures for `O=C(NC1CC12CCC(c1ccnc3ccc(F)cc13)CC2)c1ccc(Cl)cc1` (racemic) [Example 8, (±)-(cis/trans)-4-chloro-N-(6-(6-fluoroquinolin-4-yl)spiro[2.5]octan-1-yl)benzamide] were greater than 30 nM and 990 nM.
For `O=C(NC1CCC12CCC(c1ccnc3ccc(F)cc13)CC2)c1ccc(Cl)cc1` (racemic) [Example 12B, (±) 4-chloro-N-(7-(6-fluoroquinolin-4-yl)spiro[3.5]nonan-1-yl)benzamide] the same measures were greater than 30 nM and 1180 nM.
For `O=C(Nc1ccc(Br)cc1)C1CC2(CCC(c3ccnc4ccc(F)cc34)CC2)C1` (racemic) [Example 18, (±) N-(4-bromophenyl)-7-(6-fluoroquinoline-4-yl)spiro[3.5]nonane-2-carboxamide] the same measures were 2.52 nM and 200 nM.
In the case of `O=C(Nc1ccc(F)cc1)C1CC2(CCC(c3ccnc4ccc(F)cc34)CC2)C1` (racemic) [Example 19, (±) N-(4-fluorophenyl)-7-(6-fluoroquinolin-4-yl)spiro[3.5]nonane-2-carboxamide], the IC50 on IDO in Hela cells was determined as 3.36 nM; at IDO enzyme it was 400 nM.
For `O=C(NC1CC2(CCC(c3ccnc4ccc(F)cc34)CC2)C1)c1ccc(Br)cc1` (racemic) [Example 20, (±) 4-bromo-N-(7-(6-fluoroquinolin-4-yl)spiro[3.5]nonan-2-yl)benzamide], the values for the IC50 at IDO in Hela cells and on IDO enzyme were greater than 10 nM and 2420 nM, respectively.
Taken in the same sequence, the figures for `O=C(NC1CC2(CCC(c3ccnc4ccc(F)cc34)CC2)C1)c1ccc(F)cc1` (racemic) [Example 21, (±) 4-fluoro-N-(7-(6-fluoroquinolin-4-yl)spiro[3.5]nonan-2-yl)benzamide] were greater than 10 nM and 480 nM.
For `O=C(Nc1ccc(Cl)cc1)C1CCC12CCC(c1ccnc3ccc(F)cc13)CC2` (single isomer, unassigned) [Example 10A, (±) N-(4-chlorophenyl)-7-(6-fluoroquinolin-4-yl)spiro[3.5]nonane-1-carboxamide] the same measures were greater than 3 nM and 520 nM.
For the compound `O=C(Nc1ccc(Cl)cc1)C1CC2(CCC(c3ccnc4ccc(F)cc34)CC2)C1` (single isomer, unassigned) [Example 15A, N-(4-chlorophenyl)-7-(6-fluoroquinolin-4-yl)spiro[3.5]nonane-2-carboxamide], the half-maximal inhibitory concentration (IC50) against IDO in Hela cells is greater than 10 nM; at IDO enzyme, 3660 nM.
For `O=C(Nc1ccc(Cl)cc1)C1CC2(CCC(c3ccnc4ccc(F)cc34)CC2)C1` (single isomer, unassigned) [Example 15B, N-(4-chlorophenyl)-7-(6-fluoroquinolin-4-yl)spiro[3.5]nonane-2-carboxamide] the same measures were 2.53 nM and 400 nM.
